Usually IC50 stands for the point on the concentration scale where inhibition reaches its midpoint.

One assay deals with hedgehog signaling pathway. The experiment in a line: Gli-Luc Reporter Assay for Hh Pathway Inhibition (TMHh-12 cells, pTA-8×Gli-Luc reporter). The settings on record: Mus musculus, TMHh12, enzymatic and cellular assays for the inhibition of hedgehog signaling pathways; read-out: IC50 Ranges. The class given is cell-based, Mouse. In short, it runs like this:
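Mouse TM3 cells stably carrying an 8×Gli-firefly luciferase reporter, in 2% FBS medium; pathway activated with recombinant mouse Shh (8 μg/mL) or Smo agonist, compounds added at varying concentrations for 48 h. Luminescence read; IC50 at 50% signal reduction. Toxicity checked in TM3 cells (CellTiter-Glo) or constitutive-luciferase TM3-Luc cells.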
On to `Cc1ccc(Nc2cccc3c2CCN(S(C)(=O)=O)C3)nc1-c1ccccn1` [Compound 312], for which the concentration for half-maximal inhibition (IC50) fell in the range of 1 to 10 nM.

Turning to `CCOc1cnc(-c2cc(Nc3cccc4c3CCN(C3CS(=O)(=O)C3)C4)ccc2C)cn1` [Compound 313], the half-maximal inhibitory concentration (IC50) is 1 to 10 nM.

Turning to `CCOc1cnc(-c2cc(Nc3cccc4c3CCN(S(C)(=O)=O)C4)ccc2C)cn1` [Compound 314], the IC50 was in the range of 0.001 to 1 nM.

Turning to `Cc1ccc(Nc2cccc3c2CCN(CCS(C)(=O)=O)C3)cc1-c1cc2ccccc2cn1` [Compound 315], the half-inhibitory concentration (IC50) fell in the range of 0.001 to 1 nM.

As to `Cc1ccc(Nc2cccc3c2CCN(C2CS(=O)(=O)C2)C3)cc1-c1cc2ccccc2cn1` [Compound 316], the IC50 lay in the range of 0.001 to 1 nM.

As for `Cc1ccc(-c2nc(Nc3cccc4c3CCN(C3CS(=O)(=O)C3)C4)ccc2Cl)nc1` [Compound 317], the IC50 was 0.001 to 1 nM.

On to `CCS(=O)(=O)N1CCc2c(cccc2Nc2ccc(C)c(-c3ccc(OC)nn3)n2)C1` [Compound 318], for which the IC50 fell in the range of 1 to 10 nM.

For `COc1ccc(-c2nc(Nc3cccc4c3CCN(S(=O)(=O)C(C)C)C4)ccc2C)nn1` [Compound 319], the half-inhibitory concentration (IC50) is 1 to 10 nM.

`COc1ccc(-c2cc(Nc3cccc4c3CCN([C@@H]3CCS(=O)(=O)C3)C4)ccc2C)nn1` [Compound 321]: the IC50 was 1 to 10 nM.

With `COc1ccc(-c2cc(Nc3cccc4c3CCN([C@H]3CCS(=O)(=O)C3)C4)ccc2C)nn1` [Compound 322], the half-maximal inhibitory concentration (IC50) was 1 to 10 nM.

In the case of `Cc1ccc(Nc2cccc3c2CCN(C2CCS(=O)(=O)C2)C3)cc1-c1cc2ccccc2cn1` (stereo not shown) [Compound 324], the IC50 was in the range of 0.001 to 1 nM.

On to `Cc1ccc(Nc2cccc3c2CCN(C2CS(=O)(=O)C2)C3)cc1-c1ncc(F)cc1F` [Compound 325], for which the concentration for half-maximal inhibition (IC50) fell in the range of 0.001 to 1 nM.

On to `Cc1ccc(Nc2cccc3c2CCN(C2CCS(=O)(=O)C2)C3)cc1-c1ncc(F)cc1F` (stereo not shown) [Compound 326], for which the half-maximal inhibitory concentration (IC50) lay in the range of 0.001 to 1 nM.

On to `CCOc1ccc(-c2cc(Nc3cccc4c3CCN(C3CCS(=O)(=O)CC3)C4)ccc2C)nn1` [Compound 327], for which the 50% inhibitory concentration (IC50) was in the range of 1 to 10 nM.

Take `CCOc1ccc(-c2nc(Nc3cccc4c3CCN(S(=O)(=O)C(C)C)C4)ccc2C)nn1` [Compound 328]: the half-inhibitory concentration (IC50) was 1 to 10 nM.

In the case of `CCOc1ccc(-c2nc(Nc3cccc4c3CCN(C3CS(=O)(=O)C3)C4)ccc2C)nn1` [Compound 329], the IC50 was 10 to 100 nM.

Regarding `CCOc1cnc(-c2nc(Nc3cccc4c3CCN(S(=O)(=O)CC)C4)ccc2C)cn1` [Compound 330], the IC50 was 1 to 10 nM.

Consider `Cc1ccc(Nc2nccc3c2CCN(S(C)(=O)=O)C3)cc1-c1cc2ccccc2cn1` [Compound 331], for which the 50% inhibitory concentration (IC50) lay in the range of 10 to 100 nM.

In the case of `Cc1ccc(Nc2nccc3c2CCN(C2CS(=O)(=O)C2)C3)cc1-c1cc2ccccc2cn1` [Compound 332], the half-maximal inhibitory concentration (IC50) fell in the range of 10 to 100 nM.

`CCOc1cnc(-c2nc(Nc3cccc4c3CCN(S(C)(=O)=O)C4)ccc2C)cn1` [Compound 333]: the 50% inhibitory concentration (IC50) was 10 to 100 nM.

For the compound `CCOc1ccc(-c2nc(Nc3cccc4c3CCN(C3CCS(=O)(=O)C3)C4)ccc2C)nn1` (stereo not shown) [Compound 334], the half-maximal inhibitory concentration (IC50) was in the range of 10 to 100 nM.

For `CCOc1cnc(-c2cc(Nc3cccc4c3CCN(C3CCS(=O)(=O)CC3)C4)ccc2C)cn1` [Compound 335], the IC50 was 1 to 10 nM.

On to `CCOc1cnc(-c2nc(Nc3cccc4c3CCN(S(=O)(=O)C(C)C)C4)ccc2C)cn1` [Compound 336], for which the concentration for half-maximal inhibition (IC50) was 10 to 100 nM.

For `CCOc1ccc(-c2cc(Nc3cccc4c3CCN([C@@H]3CCS(=O)(=O)C3)C4)ccc2C)nn1` [Compound 339], the IC50 was 1 to 10 nM.

With `CCOc1ccc(-c2cc(Nc3cccc4c3CCN([C@H]3CCS(=O)(=O)C3)C4)ccc2C)nn1` [Compound 340], the IC50 was in the range of 1 to 10 nM.

As for `Cc1ccc(Nc2ncnc3c2CCN(C2CCS(=O)(=O)CC2)C3)cc1-c1cc2ccccc2cn1` [Compound 342], the IC50 was 1 to 10 nM.

As to `Cc1ccc(Nc2nccc3c2CCN(C2CCS(=O)(=O)CC2)C3)cc1-c1cc2ccccc2cn1` [Compound 344], the IC50 is 0.001 to 1 nM.

As for `Clc1ccc(Nc2ccc3c(c2)CN(C2CCOCC2)CC3)cc1-c1nc(-c2ccccc2)c[nH]1` [Compound 346], the half-inhibitory concentration (IC50) was 10 to 100 nM.

As for `CCN1CCC(N2CCc3ccc(Nc4ccc(Cl)c(-c5nc(-c6ccccc6)c[nH]5)c4)cc3C2)CC1` [Compound 347], the concentration for half-maximal inhibition (IC50) was in the range of 10 to 100 nM.

Still in this assay, the particulars now being: enzymatic and cellular assays for the inhibition of hedgehog signaling pathways; read-out: IC50 Ranges.
Turning to `CCOc1ccc(-c2cc(Nc3cccc4c3CCN(C3CCS(=O)(=O)C3)C4)ccc2C)nn1` (stereo not shown) [Compound 323], the IC50 lay in the range of 1 to 10 nM.

`Cc1ccc(Nc2cccc3c2CCN(C2CCS(=O)(=O)C2)C3)cc1-c1ncc(F)cc1F` (stereo not shown) [Compound 338]: the half-maximal inhibitory concentration (IC50) was in the range of 0.001 to 1 nM.

Regarding `Cc1ccc(Nc2cccc3c2CCN([C@@H]2CCS(=O)(=O)C2)C3)cc1-c1ncccc1F` [Compound 341], the 50% inhibitory concentration (IC50) lay within 0.001 to 1 nM.

`Cc1ccc(Nc2cccc3c2CCN([C@H]2CCS(=O)(=O)C2)C3)cc1-c1ncccc1F` [Compound 343]: the IC50 was in the range of 0.001 to 1 nM.

As for `Cc1ccc(Nc2cccc3c2CCN([C@H]2CCS(=O)(=O)C2)C3)cc1-c1ncccc1F` [Compound 345], the concentration for half-maximal inhibition (IC50) fell in the range of 0.001 to 1 nM.

For the origin of these results see US9216964B2, “Hedgehog pathway modulators” (Novartis AG, priority 2008, dated 2015).
